Source: patent US9675077B2, “Composition comprising antimicrobial metal ions and a quaternary cationic surfactant” (CONVATEC TECHNOLOGIES INC., priority 2011, dated 2017)

How the values were obtained:
bacterial biofilms = test: MBEC (Minimum Biofilm Eradication Concentration) assay using the Calgary Biofilm Device; assay type: cell-based; conditions: for MBEC for the metal ion, Without DDAC: metal ion solution alone, adjusted to approx. pH 5.5; for MBEC for the metal ion, Without DDAC / MBEC for the metal ion, With 0.1% DDAC: lowest concentration at which activity was observed, values approximate; for MBEC for the metal ion, With 0.1% DDAC: metal ion solution in combination with 0.1% DDAC, approx. pH 5.5; for Synergy: metal ion with 0.1% DDAC versus metal ion without DDAC
[1] = tested on: a range of microorganisms in the biofilm state

In the case of `O=C(O)CN(CCN(CC(=O)O)CC(=O)O)CC(=O)O` [EDTA, ethylenediaminetetra-acetic acid], the “Effect of EDTA on the synergistic antimicrobial activity of cationic surfactant and metal ion” value (bacterial biofilms; […] w/w di-sodium EDTA in each test solution) is reported as “further enhances the synergistic antimicrobial activity” and the “EDTA concentration effective in making biofilm microorganisms vulnerable to antimicrobial agents” value [1] is reported as 0.25-0.5 % weight by volume.
With `O=[N+]([O-])[O-].O=[N+]([O-])[O-].O=[N+]([O-])[O-].[Ga+3]` [Gallium, gallium (III) nitrate] the “MBEC for the metal ion, Without DDAC” value (bacterial biofilms) was greater than 1000 ppm, the “MBEC for the metal ion, With 0.1% DDAC” value (bacterial biofilms) was “≦0.24 ppm” and the Synergy (bacterial biofilms) was “+ve”.
In the case of `O.O.O.O.O.O.O.O=S(=O)([O-])[O-].[Fe+2]` [Iron (II), iron (II) sulphate heptahydrate], the “MBEC for the metal ion, Without DDAC” value (bacterial biofilms) is reported as greater than 1000 ppm, the “MBEC for the metal ion, With 0.1% DDAC” value (bacterial biofilms) is reported as “≦0.24 ppm” and the Synergy (bacterial biofilms) is reported as “+ve”.
For `O.O.O.O.[Cl][Mn][Cl]` [Manganese, manganese (II) chloride tetrahydrate], the “MBEC for the metal ion, Without DDAC” value (bacterial biofilms) was greater than 1000 ppm, the “MBEC for the metal ion, With 0.1% DDAC” value (bacterial biofilms) was “≦0.24 ppm” and the Synergy (bacterial biofilms) was “+ve”.
For `O=[N+]([O-])[O-].[Ag+]` [Silver, silver nitrate], the “Effectiveness against biofilms in the MBEC model” value (bacterial biofilms; 0.01% w/w silver, 0.1M acetate buffer, pH 4.7 to 7.7, no surfactant) was “None of the 0.01% silver solutions pH buffered in the range 4.7 to 7.7 were effective against biofilms”, the “MBEC for the metal ion, Without DDAC” value (bacterial biofilms) was 12.5 ppm and the “MBEC for the metal ion, With 0.1% DDAC” value (bacterial biofilms) was 0.097 ppm. For the same compound, the Synergy (bacterial biofilms) was “+ve”.
copper (II) nitrate trihydrate was tested, and the “MBEC for the metal ion, Without DDAC” value (bacterial biofilms) was 15.6 ppm, the “MBEC for the metal ion, With 0.1% DDAC” value (bacterial biofilms) was 1.95 ppm and the Synergy (bacterial biofilms) was “+ve”.
For iron (III) sulphate hydrate, the “MBEC for the metal ion, Without DDAC” value (bacterial biofilms) was greater than 1000 ppm, the “MBEC for the metal ion, With 0.1% DDAC” value (bacterial biofilms) was “≦0.24 ppm” and the Synergy (bacterial biofilms) was “+ve”.
In the case of zinc sulphate heptahydrate, the “MBEC for the metal ion, Without DDAC” value (bacterial biofilms) is reported as greater than 1000 ppm, the “MBEC for the metal ion, With 0.1% DDAC” value (bacterial biofilms) is reported as “≦125 ppm” and the Synergy (bacterial biofilms) is reported as “+ve”.
